Measured values published in paper PMC4876444, “Two-Photon Enzymatic Probes Visualizing Sub-cellular/Deep-brain Caspase Activities in Neurodegenerative Models” (Scientific Reports, 2016).
Blank lines part the entries; values can stand above or below the compound they belong to. Where a SMILES comes first, the peptide text is derived from it. The star is where a group is joined. NH(6-Ac-2-naphthyl) = CC(=O)c1ccc2cc(N*)ccc2c1

Legend:
[1] = test system: caspase-1 in primary cortical neurons; assay: TPFM of caspase-1 activation in glucose-deprived primary cortical neurons; assay type: cell-based, mouse; settings: 50 μM, added 1 h prior to the probe (t = 7 h during GD)
Method: NC: neuron cells incubated in normal neurobasal medium.
All two-photon images were taken on a Leica TCS SP5X Confocal Microscope System. […] Dissociated neuron-enriched cell cultures of cerebral cortex were established from day 16 C57BL/6 mouse embryos, as described[53]. Primary neurons were cultured in the neurobasal medium (Gibco) with 2% B27 and 0.5 mM GlutaMAX. Experiments were performed in 7–9 day-old cultures. For glucose-deprivation studies, glucose-free neurobasal medium was used (with other components fixed). The cultured neurons were incubated in glucose-free medium for 8 h, while control cells were incubated in normal neurobasal medium.
Caspase-1-like activities detected in primary cortical neurons of C57BL/6 mouse underwent
glucose-deprivation (GD) treatment.
neurons grown in normal culture medium and incubated with C1RB/C1FS for 1 h (NC). Panels 2/5: primary neuron
underwent GD induction for 8 h and incubated with C1RB/C1FS for 1 h.
(50 μM) was added 1 h earlier (t = 7 h) than C1RB/C1FS.
TPFM imaging of caspase activities in primary cortical neurons and fresh tissues.
Dissociated neuron-enriched cell cultures of cerebral cortex were established from day 16 C57BL/6 mouse embryos, as described.14 Primary neurons were cultured in the neurobasal medium (Gibco) with 2% B27 and 0.5 mM GlutaMAX. Experiments were performed in 7-9 day-old cultures. […]

[2] = target: T1, caspase-1 (Homo sapiens, UniProt P29466); assay: S/N ratio of caspase-1 probes in BV2 lysates spiked with caspase-1; assay type: biochemical; settings: probe 6 μM, 25 μg BV2 lysates spiked with caspase-1, 37 °C, 2 h; among the four caspase-1 probes
T1 construct: purchased Merck
T1 sequence (P29466 120-297 limits assumed): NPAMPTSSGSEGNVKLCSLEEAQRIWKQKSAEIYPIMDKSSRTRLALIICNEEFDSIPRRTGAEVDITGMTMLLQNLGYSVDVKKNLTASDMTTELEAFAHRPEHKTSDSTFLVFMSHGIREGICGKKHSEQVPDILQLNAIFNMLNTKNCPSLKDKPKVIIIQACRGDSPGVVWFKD
T1 sequence (P29466 317-404 limits assumed): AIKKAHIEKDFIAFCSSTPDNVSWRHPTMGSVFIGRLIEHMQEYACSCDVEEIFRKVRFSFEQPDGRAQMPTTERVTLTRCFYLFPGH
Method: Figure 2 Photophysical and enzymatic properties of caspase probes. (a) Photophysical and kinetic properties of probes and free dyes. All measurements were taken in 50 mM HEPES, 50 mM NaCl, 0.1% CHAPS, 10 mM EDTA, 5% glycerol, 10 mM DTT, at pH = 7.2. (b) Time-dependent ratiometric fluorescence changes of C1RB (6 μM) incubated with caspase-1 (10 nM) over 2 h at room temperature. Data were obtained by plotting the normalized ratio of fluorescence intensity at 500 nm (F500 nm) over that at 450 nm (F450 nm). (Inset) time-dependent fluorescence emission spectra with λex = 350 nm. (c) Time-dependent “Turn-ON” effect of C1FS (6 μM) incubated with caspase-1 (10 nM) measured and normalized at 460 nm (F460 nm) over 2 h at room temperature, with the corresponding fluorescence emission spectra (inset). λex = 350 nm. (d) Normalized S/N ratio of each of the four caspase-1 probes (6 μM) incubated with 25 μg of BV2 lysates spiked with different concentrations of caspase-1 (37 °C, t = 2 h). S and N represent the fluorescence emission intensity of each reaction solution in the presence (S) and absence (N) of caspase-1. […] (−) no caspase; (caspase-1) 1.5 nM; (caspase-3) 0.8 nM; (caspase-6) 0.2 μM; (caspase-8) 10 nM; (caspase-9) 0.5 μM. […] Normalized, relative fluorescence (RFU) values were obtained after 2-h incubation at room temperature. […]

[3] = test system: NIH/3T3, BV2 and HeLa cells; assay: XTT cytotoxicity assay; assay type: cell-based, mouse, human; settings: XTT assay, 12, 30, 60, 120 μM, 24 h
Method: Supplementary Figure 4. Cytotoxicity of two-photon enzymatic probes (12, 30, 60, 120 μM) in mammalian cells (NIH/3T3, BV2 and HeLa) after incubation for 24 h, as determined by XTT assay. […]
Detection of caspase activities in mammalian cells and tissues
Cell culture. The mouse embryonic fibroblast cell line (NIH/3T3), mouse microglial cell line (BV2) and human epithelial carcinoma cell line (HeLa) used in our experiments were cultured in Dulbecco’s Modified Eagle's Medium (DMEM) supplemented with 10% (for NIH/3T3 and HeLa) or 5% (for BV2) fetal bovine serum (FBS), 100.0 mg/L streptomycin and 100 IU/mL penicillin in a humidified atmosphere of 5% CO2 at 37 °C.
XTT assay. The cytotoxicity of our probes was determined by using the XTT colorimetric cell proliferation kit (Roche) following manufacturer’s guidelines. Briefly, NIH/3T3, BV2 and HeLa cells were seeded in 20~30% confluency (since they will reach >50% confluency within 24 h) into 96-well plates and incubated overnight before the addition of probes with concentrations of 12 μM, 30 μM, 60 μM and 120 μM, respectively. Probes were applied from DMSO stocks whereby DMSO never exceeded 1% in the final solution. The same volume of DMSO was used as a negative control; and the same volume of STS (200 nM) was used as a positive control. After a total treatment time of 24 h, proliferation was assayed using the XTT assay (Supplementary Fig. 4). […]

[4] = not given; remark: listed apart in the source
[5] = not given; remark: listed apart in the source

effect of inhibitor on C1RB/C1FS fluorescence signals in glucose-deprived neurons [1]: inhibited
SMILES: CCO[C@@H]1OC(=O)C[C@@H]1NC(=O)[C@@H]1CCCN2C(=O)CC[C@H](NC(=O)c3nccc4ccccc34)C(=O)N12 [Pralnacasan]

SMILES: CC(=O)N[C@@H](Cc1c[nH]c2ccccc12)C(=O)N[C@@H](CCC(=O)O)C(=O)N[C@@H](Cc1c[nH]cn1)C(=O)N[C@@H](CC(=O)O)C(=O)Nc1ccc2cc(C(C)=O)ccc2c1 [C1RB, Ac-WEHD-AAN] (Ac-WEHD-{NH(6-Ac-2-naphthyl)})
detection limit of caspase-1 activity [2]: lowest detection limit
cytotoxicity [3]: minimally cytotoxic
λem (emission maximum): 448 nm
λex (absorption/excitation maximum) [4]: 316 nm
δΦ (two-photon action cross-section) [5]: 2.3 GM
